The results in this text go back to US4080466A, “Pharmaceutical compositions containing 4-hydroxyl-1,3-dithiolan-2-ylidene malonates” (Nihon Nohyaku Co., Ltd., priority 1976, dated 1978).

The subject of experiment [1] is acute liver damage induced by carbon tetrachloride. Nature of the experiment: Protective Effect on Acute Liver Damage associated with Centrilobular Necrosis (carbon tetrachloride). Type of experiment: in vivo, mice (dd-strain). Conditions: 250 mg/kg oral, average of 5 to 6 mice; for Liver damage index: 6 h before CCl4 (0.05 ml/kg oral), score 0 Normal, 2 slight, 4 clear, 6 heavy damage; for p-GPT (plasma glutamic-pyruvic transaminase activity): 6 h before CCl4, 24 h after CCl4, values over 1,000 regarded as 1,000. The text has this:
Carbon tetrachloride (CCl4) administration induces centrilobular necrosis of the liver associated with loss of diphosphopyridine nucleotide, hepatic glycogen, coenzyme A and increase in neutral fat. Release of several enzymes from the hepatocytes, and increase of enzyme activities in the plasma are recognized as the result of the damage of the liver. A suitable means for evaluating the degree of damage induced by CCl4 or the degree of protection afforded by drugs is to study the plasma glutamic-pyruvic transminase (p-GPT) activity.
Methods: The test compounds were dissolved or suspended in olive oil and administered orally at the dose of 250 mg/kg to the mice (Four-week-old male mice-dd strain). After 6 hours, CCl4 was administered orally (0.05 ml/kg as olive oil solution). Animals were killed 24 hours after CCl4 administration, and the liver was grossly observed. The plasma was obtained by centrifugation. Activities of p-GPT were determined by the method of Reitman and Frankel and expressed in Karmen units.
Score for liver damage index was as follows:
4 Clearly observable damage
Each figure indicates average of 5 to 6 mice. Values of p-GPT over 1,000 Karmen unit regarded as 1,000 for calculation of average for convenience.

Experiment [2] deals with fatty liver induced by ethionine. The experiment is described as follows: Effect on Fatty Liver (ethionine). Conditions: 24 h, 10 animals. Type of experiment: in vivo, mouse (dd-strain). The source says: But, the fatty liver is grouped into a couple of patterns from the mechanism of lipid accumulation or metabolism of lipoprotein in the liver. Ethionine is a typical example which induces first pattern of fatty liver. It inhibits RNA and protein synthesis and destructs polysome of the liver cell. Fatty liver is induced by inhibition of the protein synthesis and disturbance of lipoprotein secretion.
Usually, fatty liver is closely related to the accumulation of triglyceride in the liver. In the present example, the degree of fatty liver and protective or therapeutic effect against the fatty liver was evaluated by measurement of triglyceride content in the liver. Methods:
The compounds of this invention and methionine were independently dissolved or suspended into olive oil and administered orally to 4 week-old male mouse (dd-strain) at the dose of 250 mg/kg. One hour before it, simultaneously to it, or one hour after it, ethionine dissolved in equimolar NaOH solution was administered intraperitoneally at the dose of 200 mg/kg. Twenty four hours after the administration of ethionine, the animals were sacrificed and triglyceride content in the liver was determined by chromotropic acid method.

The subject of experiment [3] is fatty liver induced by carbon tetrachloride. The experiment is described as follows: Therapeutic Effect on Fatty Liver (carbon tetrachloride). Type of experiment: in vivo, rats (SD strain). How it is done: Methods: […] The treated animals were left for 3 days after the last administration to maximize the manifestation of fatty liver. […] It was orally given everyday for 10 days at the dose of 50 or 250 mg/kg. On the 11th day, the animals were sacrificed. The therapeutic effect was evaluated by determining the content of liquid in the liver (triglyceride and total lipid) and examining the histopathological changes. Triglyceride and total lipid were determined colorimetrically by chromotropic acid method and Bragdon's oxidation method, respectively. Indices for the histopathological change is as follows: […]

Consider `ClC(Cl)(Cl)Cl` [Carbon tetrachloride, reference compound], for which, in experiment [1], the Liver damage index is on record as 5.2 and the “p-GPT (plasma glutamic-pyruvic transaminase activity)” value (“p-GPT” for short) was > 1,000 Karmen units.
As to `CC(C)COC(=O)C(C(=O)OCC(C)C)=C1SCC(O)S1` (stereo not shown) [Compound 3, Diisobutyl 4-hydroxy-1,3-dithiolan-2-ylidene malonate], in experiment [1], the Liver damage index was 0.3 and the “p-GPT” value is listed as 52 Karmen units.
Taken in the same sequence, the figures for `CCOC(=O)C(C(=O)OCC)=C1SCC(OC(C)=O)S1` (stereo not shown) [Compound 5, Diethyl 4-acetoxy-1,3-dithiolan-2-ylidene malonate] were 1.2 and 106 Karmen units.
Taken in the same sequence, the figures for `CCOC(=O)C(C(=O)OCC)=C1SCC(OC(=O)CC)S1` (stereo not shown) [Compound 6, Diethyl 4-propionyloxy-1,3-dithiolan-2-ylidene malonate] were 1.4 and 210 Karmen units.
As to `CC(=O)OC1CSC(=C(C(=O)OC(C)C)C(=O)OC(C)C)S1` (stereo not shown) [Compound 7, Diisopropyl 4-acetoxy-1,3-dithiolan-2-ylidene malonate], in experiment [1], the Liver damage index worked out at 0.4 and the “p-GPT” value is reported as 80 Karmen units.
Taken in the same sequence, the figures for `CCC(=O)OC1CSC(=C(C(=O)OC(C)C)C(=O)OC(C)C)S1` (stereo not shown) [Compound 8, Diisopropyl 4-propionyloxy-1,3-dithiolan-2-ylidene malonate] were 0.6 and 62 Karmen units.
Regarding `CCCOC(=O)C(C(=O)OCCC)=C1SCC(OC(C)=O)S1` (stereo not shown) [Compound 9, Di-n-propyl-4-acetoxy-1,3-dithiolan-2-ylidene malonate], in experiment [1], the Liver damage index turned out to be 0.8 and the “p-GPT” value amounted to 102 Karmen units.
In experiment [2] (ethionine alone (positive control), 200 mg/kg i.p.), `CCSCC[C@H](N)C(=O)O` [Ethionine, reference compound] came in with a Triglyceride of 15.6 ± 1.34 mg/g-liver.
`CSCC[C@H](N)C(=O)O` [Methionine, reference compound] gave a Triglyceride in experiment [2] (250 mg/kg oral, simultaneous with ethionine (0 hr)) of 10.8 ± 0.88 mg/g-liver. In experiment [3] (250 mg/kg oral, 10 days), this molecule registered a Total lipid of 156.8 ± 23.8 mg/g-liver and a Triglyceride of 42.7 ± 7.2 mg/g-liver. In experiment [3] (50 or 250 mg/kg oral), the “therapeutic effect on fatty liver (in words)” value is recorded as “hardly exhibited a therapeutic effect”. The “Degree of fatty liver (histopathological examination)” value in experiment [3] (dose not printed in Table 8, one symbol per animal) was “± ± ++ ++ ++ + +”.
For `NC(=O)CCCCC1CCSS1` (stereo not shown) [Thioctic acid amide, reference compound], in experiment [1], the Liver damage index is on record as 4.8 and the “p-GPT” value was 763 Karmen units.
